Activity calls are given as the source filed them. The calls are words filed in the database; no cut-off is given here.
Legend:
[1] = target: Serine/threonine-protein kinase mTOR (Homo sapiens, UniProt P42345); test: Inhibition of mTOR (unknown origin) using ULight-4E-BP1 as substrate measured after 45 mins in presence of ATP by LANCE Ultra assay
[2] = target: T1, Phosphatidylinositol 4,5-bisphosphate 3-kinase catalytic subunit delta isoform (Homo sapiens, UniProt O00329); test: Inhibition of PI3Kdelta (unknown origin) using PIP2 as substrate measured after 1 hr in presence of ATP by ADP-Glo reagent based assay
T1 sequence (O00329 whole entry): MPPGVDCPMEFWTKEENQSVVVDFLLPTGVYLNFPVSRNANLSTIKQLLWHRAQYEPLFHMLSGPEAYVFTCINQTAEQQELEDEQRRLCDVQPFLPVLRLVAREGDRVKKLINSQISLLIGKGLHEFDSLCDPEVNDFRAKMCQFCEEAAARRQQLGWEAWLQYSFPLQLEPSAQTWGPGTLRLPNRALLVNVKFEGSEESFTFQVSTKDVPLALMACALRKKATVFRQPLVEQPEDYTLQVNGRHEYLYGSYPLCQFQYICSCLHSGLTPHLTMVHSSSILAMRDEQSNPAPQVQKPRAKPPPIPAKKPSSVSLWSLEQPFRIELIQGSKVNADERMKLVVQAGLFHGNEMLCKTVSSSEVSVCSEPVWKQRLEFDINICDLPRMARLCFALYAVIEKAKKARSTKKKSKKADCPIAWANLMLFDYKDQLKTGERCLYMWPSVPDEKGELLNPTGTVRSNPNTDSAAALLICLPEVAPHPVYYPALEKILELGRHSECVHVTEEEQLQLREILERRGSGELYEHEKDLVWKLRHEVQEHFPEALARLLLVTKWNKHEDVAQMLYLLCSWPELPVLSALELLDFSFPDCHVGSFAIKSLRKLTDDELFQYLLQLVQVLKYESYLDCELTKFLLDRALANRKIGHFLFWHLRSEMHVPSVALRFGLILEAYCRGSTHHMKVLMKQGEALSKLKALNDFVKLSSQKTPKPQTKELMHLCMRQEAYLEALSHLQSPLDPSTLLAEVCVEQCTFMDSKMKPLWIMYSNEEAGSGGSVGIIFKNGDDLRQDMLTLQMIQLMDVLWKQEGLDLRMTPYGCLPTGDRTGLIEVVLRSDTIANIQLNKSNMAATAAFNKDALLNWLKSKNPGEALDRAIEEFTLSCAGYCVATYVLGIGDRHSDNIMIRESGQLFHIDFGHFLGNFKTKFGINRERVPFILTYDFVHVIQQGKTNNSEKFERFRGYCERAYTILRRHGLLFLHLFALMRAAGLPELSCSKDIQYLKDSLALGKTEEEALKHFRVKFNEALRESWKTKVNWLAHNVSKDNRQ

[3] = tested on: MDA-MB-231; test: Antiproliferative activity against human MDA-MB-231 cells assessed as reduction in cell viability after 48 hrs by MTT assay; type: functional, cell-based; settings: MDA-MB-231, 48 h
[4] = tested on: HeLa; test: Antiproliferative activity against human HeLa cells assessed as reduction in cell viability after 48 hrs by MTT assay; type: functional, cell-based
[5] = tested on: CNE-2; test: Antiproliferative activity against human CNE2 cells assessed as reduction in cell viability after 48 hrs by MTT assay; type: functional, cell-based; settings: CNE-2, 48 h
[6] = tested on: HCT-116; test: Antiproliferative activity against human HCT116 cells assessed as reduction in cell viability after 48 hrs by MTT assay; type: functional, cell-based; settings: HCT-116, 48 h
[7] = tested on: HepG2; test: Antiproliferative activity against human HepG2 cells assessed as reduction in cell viability after 48 hrs by MTT assay; type: functional, cell-based; settings: HepG2, 48 h
[8] = tested on: MCF7; test: Antiproliferative activity against human MCF-7 cells assessed as reduction in cell viability after 48 hrs by MTT assay; type: functional, cell-based; settings: MCF7, 48 h
[9] = tested on: HCT-116; test: Inhibition of PI3K/mTOR signaling in human HCT116 cells assessed as reduction in AKT phosphorylation at 10 uM measured by Western blot analysis; type: cell-based
[10] = tested on: HCT-116; test: Inhibition of PI3K/mTOR signaling in human HCT116 cells assessed as reduction in […] phosphorylation at 10 uM measured by Western blot analysis; type: cell-based
[11] = Metabolic stability in artificial gastrointestinal fluids
[12] = Metabolic stability in rat liver microsomes assessed as compound remaining measured after 45 mins; type: ADME, Microsome; settings: 0.75 h

Question: For `CS(=O)(=O)N1CCN(C(=O)c2ccc3nc(Nc4ccc(-c5nc(N6CCOCC6)nc(N6CCOCC6)n5)cc4)[nH]c3c2)CC1`, which IC50 [1] is on record?
Answer: 11.9 µM

Question: With `CN(C)C1CCN(C(=O)c2ccc3nc(Nc4ccc(-c5nc(N6CCOCC6)nc(N6CCOCC6)n5)cc4)[nH]c3c2)CC1` as the molecule, how does the IC50 [1] read?
Answer: 14.6 µM

Question: For `NC(=O)C1CCN(C(=O)c2ccc3nc(Nc4ccc(-c5nc(N6CCOCC6)nc(N6CCOCC6)n5)cc4)[nH]c3c2)CC1`, which IC50 [1] is on record?
Answer: 15.4 µM

Question: What about the IC50 [2] of the same molecule?
Answer: 0.0023 µM

Question: With `NC(=O)C1(N)CCN(C(=O)c2ccc3nc(Nc4ccc(-c5nc(N6CCOCC6)nc(N6CCOCC6)n5)cc4)[nH]c3c2)CC1` as the molecule, how does the IC50 [1] read?
Answer: 5.7 µM

Question: For `NC(=O)[C@H]1CCCN1C(=O)c1ccc2nc(Nc3ccc(-c4nc(N5CCOCC5)nc(N5CCOCC5)n4)cc3)[nH]c2c1`, which IC50 [1] is on record?
Answer: 5.6 µM

Question: What about the IC50 [2] of the same molecule?
Answer: 0.0051 µM

Question: And the IC50 [3]?
Answer: 5.5 µM

Question: What about the IC50 [4] of the same molecule?
Answer: 7.7 µM

Question: What about the IC50 [5] of the same molecule?
Answer: 7.3 µM

Question: What about the IC50 [6] of the same molecule?
Answer: 0.9 µM

Question: And the IC50 [7]?
Answer: 23 µM

Question: And the IC50 [8]?
Answer: 0.3 µM

Question: And the inhibition [9]?
Answer: Active

Question: And the inhibition [10]?
Answer: Active

Question: What about the Stability [11] of the same molecule?
Answer: Stable

Question: What about the Stabilty [12] of the same molecule?
Answer: Stable

Question: For `NC(=O)C1CCCCN1C(=O)c1ccc2nc(Nc3ccc(-c4nc(N5CCOCC5)nc(N5CCOCC5)n4)cc3)[nH]c2c1` (centres undefined), which IC50 [1] is on record?
Answer: 8.5 µM

Question: With `C[C@H](NC(=O)c1ccc2nc(Nc3ccc(-c4nc(N5CCOCC5)nc(N5CCOCC5)n4)cc3)[nH]c2c1)C(N)=O` as the molecule, how does the IC50 [1] read?
Answer: 5.8 µM

Question: What about the IC50 [2] of the same molecule?
Answer: 0.005 µM

Question: What about the IC50 [3] of the same molecule?
Answer: 1.9 µM

Question: And the IC50 [4]?
Answer: 1.3 µM

Question: What about the IC50 [5] of the same molecule?
Answer: 12.3 µM

Question: What about the IC50 [6] of the same molecule?
Answer: 0.7 µM

Question: And the IC50 [7]?
Answer: 7.9 µM

Question: And the IC50 [8]?
Answer: 0.4 µM

Question: Which results are given for `NC(=O)[C@@H]1CCCN1C(=O)c1ccc2nc(Nc3ccc(-c4nc(N5CCOCC5)nc(N5CCOCC5)n4)cc3)[nH]c2c1`?
Answer: IC50 [1]: 11.8 µM; Stability [11]: Stable; Stabilty [12]: Stable

Question: With `CN1CCN(C(=O)c2ccc3nc(Nc4ccc(-c5nc(N6CCOCC6)nc(N6CCOCC6)n5)cc4)[nH]c3c2)CC1` as the molecule, how does the IC50 [1] read?
Answer: 13.1 µM

Question: And the IC50 [2]?
Answer: 0.013 µM

Question: Which IC50 [1] does the source give for `O=C(c1ccc2nc(Nc3ccc(-c4nc(N5CCOCC5)nc(N5CCOCC5)n4)cc3)[nH]c2c1)N1CCOCC1` here?
Answer: 12.9 µM

Question: What about the IC50 [2] of the same molecule?
Answer: 0.044 µM

Question: What about the IC50 [3] of the same molecule?
Answer: 4.8 µM

Question: What about the IC50 [4] of the same molecule?
Answer: 2.4 µM

Question: What about the IC50 [5] of the same molecule?
Answer: 6.9 µM

Question: What about the IC50 [6] of the same molecule?
Answer: 0.3 µM

Question: What about the IC50 [7] of the same molecule?
Answer: 1.3 µM

Question: What about the IC50 [8] of the same molecule?
Answer: 1.2 µM

Question: And the inhibition [9]?
Answer: Active

Question: What about the inhibition [10] of the same molecule?
Answer: Active

Question: And the Stability [11]?
Answer: Stable

Question: And the Stabilty [12]?
Answer: Unstable

Question: Which IC50 [1] does the source give for `NC(=O)C1CCCN(C(=O)c2ccc3nc(Nc4ccc(-c5nc(N6CCOCC6)nc(N6CCOCC6)n5)cc4)[nH]c3c2)C1` (centres undefined) here?
Answer: 10.2 µM

— ChEMBL document CHEMBL4765397, “Design, synthesis and bioevaluation of novel substituted triazines as potential dual PI3K/mTOR inhibitors” (Eur J Med Chem, 2020)
